Measurements published in patent US20100113332A1, “METHOD OF TREATING AN INFLAMMATORY DISEASE BY DOUBLE STRANDED RIBONUCLEIC ACID” (NASTECH PHARMACEUTICAL COMPANY INC., priority 2004, published 2010).

Tested on: TNF-α mRNA
Assay: TNF-α knockdown in human monocytes (branch DNA);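 also: LPS-activated human CD14+ monocytes, TNF-α mRNA read by branched DNA assay and normalized to cypB mRNA, knockdown compared with random-sequence Qneg siRNA as negative control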
[1] = siRNA 4 nM complexed with 1.6 uM PN73
[2] = siRNA 4 nM complexed with 1.6 uM PN509
[3] = siRNA 20 nM complexed with 0.5 uM PN250
[4] = siRNA 20 nM complexed with 0.75 uM PN250
[5] = siRNA 20 nM complexed with 1 uM PN250

Description: For mRNA measurement, branch DNA technology from Genospectra (CA) was used according to manufacturer's specification. Human monocytes (CD14+) treated with LPS induce TNF-α-specific mRNA within approximately 2 hrs, followed by peak levels of TNF-α protein 2 hrs later. siRNAs were screened for knockdown activity by transfecting monocytes with siRNA candidate sequences using Lipofectamine 2000, treating infected cells with LPS, and measuring TNF-α mRNA levels approximately 16 hrs later.
To quantitate mRNA level in the cells, both house keeping gene (cypB) and target gene (TNF-α) mRNA were measured, and the reading for TNF-α was normalized with cypB to obtain relative luminescence unit.
Qneg represents a random siRNA sequence and functions as the negative control in these experiments.

## AACCAAUGCCCUCCUGGCCAA (siRNA; delivered as complex with delivery-enhancing peptide, further chemistry not given here) [LC14]
[1]
  KD (%) TNF-α: 50.76%
[2]
  KD (%) TNF-α: 42.78%

## AACCCAUGUGCUCCUCACCCA (siRNA; delivered as complex with delivery-enhancing peptide, further chemistry not given here) [LC8]
[1]
  KD (%) TNF-α: 41.24%
[2]
  KD (%) TNF-α: 47.35%

## AACCUCCUCUCUGCCAUCAAG (siRNA; delivered as complex with delivery-enhancing peptide, further chemistry not given here) [LC3]
[1]
  KD (%) TNF-α: 23.17%
[2]
  KD (%) TNF-α: 30.14%

## AACUGAAAGCAUGAUCCGGGA (siRNA; delivered as complex with delivery-enhancing peptide, further chemistry not given here) [LC4]
[1]
  KD (%) TNF-α: 26.67%
[2]
  KD (%) TNF-α: 22.71%

## AAGCCUGUAGCCCAUGUUGUA (siRNA; delivered as complex with delivery-enhancing peptide, further chemistry not given here) [LC19]
[1]
  KD (%) TNF-α: 61.83%
[2]
  KD (%) TNF-α: 56.38%

## AAGCUCCAGUGGCUGAACCGC (siRNA; delivered as complex with delivery-enhancing peptide, further chemistry not given here) [LC9]
[1]
  KD (%) TNF-α: 40.32%
[2]
  KD (%) TNF-α: 58.20%

## AAGGGUGACCGACUCAGCGcU (siRNA; as printed in the source, key not given here) [LC6]
[1]
  KD (%) TNF-α: 44.10%
[2]
  KD (%) TNF-α: 50.19%

## AAUCAGCCGCAUCGCCGUCUC (siRNA; delivered as complex with delivery-enhancing peptide, further chemistry not given here) [LC7]
[1]
  KD (%) TNF-α: 42.76%
[2]
  KD (%) TNF-α: 56.11%

## AAUCGGCCCGACUAUCUCGACUU (chemistry not given here) [LC1]
[1]
  KD (%) TNF-α: 20.08%
[2]
  KD (%) TNF-α: 31.13%

## AAUCUCGACUUUGCCGAGUCU (chemistry not given here) [LC5]
[1]
  KD (%) TNF-α: 46.78%
[2]
  KD (%) TNF-α: 34.93%

## AAUGGCGUGGAGCUGAGAGAU (siRNA; delivered as complex with delivery-enhancing peptide, further chemistry not given here) [LC2]
[1]
  KD (%) TNF-α: 19.06%
[2]
  KD (%) TNF-α: 37.04%

## CCAGGGACCUCUCUCUAAU (siRNA; delivered as complex with delivery-enhancing peptide, further chemistry not given here) [TNF-4]
[3]
  KD (%) TNF-α: 0.90%
[4]
  KD (%) TNF-α: 14.39%
[5]
  KD (%) TNF-α: 26.47%

## CCUCAGCCUCUUCUCCUUCCUGA (chemistry not given here) [LC12]
[1]
  KD (%) TNF-α: 40.61%
[2]
  KD (%) TNF-α: 17.03%

## CUGAUUAAGUUGUCUAAACAA (siRNA; delivered as complex with delivery-enhancing peptide, further chemistry not given here) [LC16]
[1]
  KD (%) TNF-α: 55.91%
[2]
  KD (%) TNF-α: 40.06%

## CUUGUGAUUAUUUAUUAUUUA (siRNA; delivered as complex with delivery-enhancing peptide, further chemistry not given here) [LC18]
[1]
  KD (%) TNF-α: 63.44%
[2]
  KD (%) TNF-α: 58.13%

## GCAGGUCUACUUUGGGAUC (siRNA; delivered as complex with delivery-enhancing peptide, further chemistry not given here) [YC18]
[3]
  KD (%) TNF-α: 20.72%
[4]
  KD (%) TNF-α: 17.82%
[5]
  KD (%) TNF-α: 24.66%

## GCCCGACUAUCUCGACUUU (siRNA; delivered as complex with delivery-enhancing peptide, further chemistry not given here) [YC17]
[3]
  KD (%) TNF-α: 17.30%
[4]
  KD (%) TNF-α: 29.82%
[5]
  KD (%) TNF-α: 24.68%
